According to US4448785A, “N-Unsaturated fatty acid amides of tryptophan ester homologues and anti-cholesteric use thereof” (Sandoz, Inc., priority 1982, dated 1984):

Assays:
[1] = tested on: serum cholesterol and cholesterol ester levels; assay: Oral administration to rabbits with high cholesterol diet, serum cholesterol and arterial plaques; assay type: in vivo; details: oral 200 mg/kg per day for 9 weeks, compared to controls
cholesterol absorption = assay: Zilversmit test, cholesterol absorption in the cholesterol fed rabbit; assay type: in vivo, Male New Zealand rabbits; details: three days, n = 4
Method: The Zilversmit test is carried out as follows:
Cholesterol-1-2-^3 H and cholesterol-4-^14 C were obtained from New England Nuclear. They were purified by high pressure liquid chromatography (Beckman Model 332) using a reverse phase ultrasphere O.D.S. 25 cm×4.5 mm I.D. column with the following solvent system:
The flow rate was 1 ml/min. Detection was made at 206 nm using a Model 155-40 UV-Vis detector (Beckman). The radioactive cholesterol solution in benzene was evaporated to dryness, taken up in isopropyl alcohol and injected into the HPLC in five 20 μl aliguots. Cholesterol fractions were collected, pooled and evaporated to dryness. The purified fraction was rechromatographed under the same conditions to confirm purity.
The HPLC-purified cholesterol-1-2-^3 H was dissolved in corn oil (M.C.B.U.S.P.). The corn oil solution was added to 6.8% skim milk in a ratio of 1:4. This mixture was homogenized by sonicating with a Bronwell Biosonik IV sonicator using a microprobe at a "Lo" setting of 50 until a homogenous suspension was formed. […]
The radioactivity was determined by liquid scintillation counting in either a Packard 3320 Liquid Scintillation Spectrometer or a Beckman Model LS8000. […]
The combined efficiency of the oxidizer and liquid scintillation counter was determined for each isotope from standards of known specific activity. […]

CCCCCCCC/C=C\CCCCCCCC(=O)NC(Cc1c[nH]c2ccccc12)C(=O)OCC (single isomer, unassigned) [Example 2a, α-[(1-oxo-9-octadecenylamino)]-1H-indole-3-propanoic acid, ethyl ester (cis isomer)]
arterial wall plaques [1]: lessened formation or absence of arterial wall plaques | cholesterol and cholesterol ester serum levels [1]: reduction in cholesterol and cholesterol ester serum levels | Percent Cholesterol Absorption (cholesterol absorption; 200 mg/kg by gavage, ± S.E.M., control 43.0 ± 2.03): 20.0 ± 1.43% | Percent Cholesterol Absorption (cholesterol absorption; 500 mg/kg by gavage, Mean ± S.E.M., control 41.0 ± 3.3): 11.2 ± 1.1%
